Test results from ChEMBL document CHEMBL3352781, “Synthesis, antileishmanial and antitrypanosomal activities of N-substituted tetrahydro-β-carbolines” (Bioorg Med Chem Lett, 2014).
Active and inactive are the calls of the source. The calls are words filed in the database; no cut-off is given here.

Key:
Leishmania donovani [1] = experiment: Antimicrobial activity against promastigote stage of Leishmania donovani after 72 hrs by Alamar Blue assay; format: functional, organism-based
Leishmania donovani [2] = experiment: Antimicrobial activity against axenic amastigote stage of Leishmania donovani after 72 hrs by Alamar Blue assay; format: functional, organism-based
Leishmania donovani [3] = experiment: Antimicrobial activity against promastigote stage of Leishmania donovani infected in human THP1 cells after 72 hrs by Alamar Blue assay; format: functional, organism-based, THP-1
Trypanosoma brucei = experiment: Antimicrobial activity against trypamastigote stage of Trypanosoma brucei after 72 hrs by Alamar Blue assay; format: functional, organism-based
THP-1 = experiment: Cytotoxicity against human THP1 cells up to 10 ug/ml after 48 hrs by neutral red assay; format: cell-based; settings: thp-1, 48 h
Vero = experiment: Cytotoxicity against African green monkey Vero cells up to 25 ug/ml after 48 hrs by neutral red assay; format: cell-based; settings: chlorocebus sabaeus
HepG2 = experiment: Cytotoxicity against human HepG2 cells up to 25 ug/ml after 48 hrs by neutral red assay; format: cell-based; settings: hepg2, 48 h
LLC-PK1 = experiment: Cytotoxicity against pig LLC-PK1 cells up to 25 ug/ml after 48 hrs by neutral red assay; format: cell-based, Sus scrofa; settings: llc-pk1, 48 h
Leishmania infantum [4] = experiment: Antimicrobial activity against amastigote stage of Leishmania infantum; format: functional, organism-based
Leishmania infantum [5] = experiment: Antimicrobial activity against promastigote stage of Leishmania infantum; format: functional, organism-based
Trypanosoma cruzi = experiment: Antimicrobial activity against epimastigote stage of Trypanosoma cruzi Y; format: functional, organism-based
[6] = Leishmania donovani, 72 h, read-out: IC50
[7] = Leishmania donovani, THP-1, 72 h
[8] = Leishmania donovani, THP-1, 72 h, read-out: IC50
[9] = Trypanosoma brucei, 72 h, read-out: IC50

| Structure (SMILES) | IC50 (Leishmania donovani [1]; [6]) [µM] | IC50 (Leishmania donovani [2]; [6]) [µM] | IC50 (Trypanosoma brucei; [9]) [µM] | IC50 (Leishmania donovani [2]) | IC90 (Leishmania donovani [2]) | IC90 (Leishmania donovani [3]; THP-1) | IC50 (Leishmania donovani [3]; thp-1) | IC50 (Trypanosoma brucei) | IC90 (Trypanosoma brucei) | Activity (THP-1) | Activity (Vero) | Activity (HepG2) | Activity (LLC-PK1) | other results |
| --- | --- | --- | --- | --- | --- | --- | --- | --- | --- | --- | --- | --- | --- | --- |
| N=C(N)c1ccc(OCCCCCOc2ccc(C(=N)N)cc2)cc1 [PENTAMIDINE] | 4.8 | > 29.4 | 0.0041 | – | – | – | – | – | – | – | – | – | – | IC90 (Leishmania donovani [1]; Leishmania donovani, 72 h): 6.1 µM; IC90 (Leishmania donovani [2]; Leishmania donovani, 72 h): > 29.4 µM; IC90 (Leishmania donovani [3]; [7]): 3.1 µM; IC50 (Leishmania donovani [3]; [8]): 2 µM; IC90 (Trypanosoma brucei; Trypanosoma brucei, 72 h): 0.007 µM |
| O=C(c1cnccn1)N1CCc2c([nH]c3ccccc23)C1 | – | – | – | Not Active | inactive | inactive | Not Active | Not Active | inactive | – | – | – | – | IC50 (Leishmania donovani [1]): Not Active; IC90 (Leishmania donovani [1]): inactive |
| CN1CCN(C(=O)N2CCc3c([nH]c4ccccc34)C2)CC1 | – | – | – | Not Active | inactive | inactive | Not Active | Not Active | inactive | – | – | – | – | IC50 (Leishmania donovani [1]): Not Active; IC90 (Leishmania donovani [1]): inactive |
| O=C(N1CCOCC1)N1CCc2c([nH]c3ccccc23)C1 | – | – | – | Not Active | inactive | inactive | Not Active | Not Active | inactive | – | – | – | – | IC50 (Leishmania donovani [1]): Not Active; IC90 (Leishmania donovani [1]): inactive |
| c1ccc2c3c([nH]c2c1)CN(Cc1ccncc1)CC3 | 121 | – | 26.2 | Not Active | inactive | inactive | Not Active | – | – | Non-toxic | Non-toxic | Non-toxic | Non-toxic | – |
| Cc1ccsc1C(=O)N1CCc2c([nH]c3ccccc23)C1 | 26 | – | – | Not Active | inactive | inactive | Not Active | Not Active | inactive | Non-toxic | Non-toxic | Non-toxic | Non-toxic | – |
| c1ccc2[nH]c(CN3CCc4c([nH]c5ccccc45)C3)nc2c1 | 118 | – | 29.7 | Not Active | inactive | inactive | Not Active | – | – | Non-toxic | Non-toxic | Non-toxic | Non-toxic | – |
| c1ccc2c(CN3CCc4c([nH]c5ccccc45)C3)c3ccccc3cc2c1 | 16 | 80.4 | 11 | – | – | inactive | Not Active | – | – | Non-toxic | Non-toxic | Non-toxic | Non-toxic | IC90 (Leishmania donovani [1]; Leishmania donovani, 72 h): 76 µM; IC90 (Leishmania donovani [2]; Leishmania donovani, 72 h): 104 µM; IC90 (Trypanosoma brucei; Trypanosoma brucei, 72 h): 18.8 µM |
| c1ccc2nc(CN3CCc4c([nH]c5ccccc45)C3)ccc2c1 | – | – | – | Not Active | inactive | inactive | Not Active | Not Active | inactive | – | – | – | – | IC50 (Leishmania donovani [1]): Not Active; IC90 (Leishmania donovani [1]): inactive |
| COc1ccc2c3c([nH]c2c1)C(C)=NCC3 [HARMALINE] | 117 | 1.16 | – | – | – | – | – | – | – | – | – | – | – | IC50 (Leishmania infantum [4]): 1.16 µM; IC50 (Leishmania infantum [5]): 117 µM |
| O=C(c1cc2ccccc2o1)N1CCc2c([nH]c3ccccc23)C1 | 49.5 | 116 | – | – | – | inactive | Not Active | Not Active | inactive | Non-toxic | Non-toxic | Non-toxic | Non-toxic | IC90 (Leishmania donovani [1]; Leishmania donovani, 72 h): 120 µM |
| CN1CCN(C(=O)c2cc3c4ccccc4n4c(=O)c5ccccc5c(n2)c34)CC1 | – | – | – | – | – | – | – | – | – | – | – | – | – | IC50 (Trypanosoma cruzi): 0.4 µM |
| Cc1nccc2c1[nH]c1ccccc12 [HARMAN] | 19.2 | 0.27 | – | – | – | – | – | – | – | – | – | – | – | IC50 (Leishmania infantum [4]): 0.27 µM; IC50 (Leishmania infantum [5]): 19.2 µM |
| c1ccc2cc(CN3CCc4c([nH]c5ccccc45)C3)ccc2c1 | 22.1 | 87.6 | 10.2 | – | – | – | – | – | – | Non-toxic | Non-toxic | Non-toxic | Non-toxic | IC90 (Leishmania donovani [1]; Leishmania donovani, 72 h): 28.1 µM; IC90 (Leishmania donovani [3]; [7]): > 32 µM; IC50 (Leishmania donovani [3]; [8]): 28.3 µM; IC90 (Trypanosoma brucei; Trypanosoma brucei, 72 h): 17.6 µM |
